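In this assay, cells in 96-well plates receive the compound at five concentrations for 48 hours. Endpoints are linearly interpolated between the surrounding concentrations. GI50 = concentration required for 50% inhibition of growth.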 Calls of active or inactive are those of the source. No stated cut-off is given here; in the data, active = GI50 up to about 1.1 µM and inactive = higher.
Legend:
Test in all cases: NCI tumour cell line growth inhibition, 48 h
BT-549 = system: BT-549
NCI-H23 = system: NCI-H23
TK-10 = system: TK-10
HL-60 = system: HL-60
EKVX = system: EKVX
786-0 = system: 786-0
CCRF-CEM = system: CCRF-CEM
T47D = system: T47D
NCI/ADR-RES = system: NCI/ADR-RES
IGROV-1 = system: IGROV-1
LOX IMVI = system: LOX IMVI
OVCAR-4 = system: OVCAR-4
NCI-H226 = system: NCI-H226
PC-3 = system: PC-3
MDA-N = system: MDA-N
CAKI-1 = system: CAKI-1
SR = system: SR
NCI-H522 = system: NCI-H522
A549 = system: A549
DU-145 = system: DU-145

| SMILES | GI50 (BT-549) | GI50 (NCI-H23) | GI50 (TK-10) | GI50 (HL-60) | GI50 (EKVX) | GI50 (786-0) | GI50 (CCRF-CEM) | GI50 (T47D) | GI50 (NCI/ADR-RES) | GI50 (IGROV-1) | GI50 (LOX IMVI) | GI50 (OVCAR-4) | GI50 (NCI-H226) | GI50 (PC-3) | GI50 (MDA-N) | GI50 (CAKI-1) | GI50 (SR) | GI50 (NCI-H522) | GI50 (A549) | GI50 (DU-145) |
| --- | --- | --- | --- | --- | --- | --- | --- | --- | --- | --- | --- | --- | --- | --- | --- | --- | --- | --- | --- | --- |
| O=C1CCCC2=C(N1)C(=O)C=CC2=O | 16.7 µM (inactive) | 39.6 µM (inactive) | 42.4 µM (inactive) | 8.61 µM (inactive) | 34.4 µM (inactive) | 42.5 µM (inactive) | 10.6 µM (inactive) | 22 µM (inactive) | 26.8 µM (inactive) | 43 µM (inactive) | > 53.5 µM (inactive) | 45.7 µM (inactive) | 11.1 µM (inactive) | 16.1 µM (inactive) | 16.8 µM (inactive) | 32.5 µM (inactive) | 24.4 µM (inactive) | 13.6 µM (inactive) | > 63.1 µM (inactive) | 17.5 µM (inactive) |
| COC(=O)/C=C/[C@H]1[C@H](C)N1S(=O)(=O)c1ccc(C)cc1 (stereo partly specified) | > 100 µM (inactive) | 74.3 µM (inactive) | > 100 µM (inactive) | > 99.5 µM (inactive) | > 100 µM (inactive) | 82.4 µM (inactive) | > 100 µM (inactive) | > 100 µM (inactive) | > 100 µM (inactive) | > 100 µM (inactive) | 61.7 µM (inactive) | 56.8 µM (inactive) | > 100 µM (inactive) | > 100 µM (inactive) | > 100 µM (inactive) | > 100 µM (inactive) | 31.6 µM (inactive) | 48.6 µM (inactive) | > 100 µM (inactive) | > 100 µM (inactive) |
| Cc1cc2nc(-c3cc(C(C)(C)C)c(O)c(C(C)(C)C)c3)[nH]c2cc1C | > 100 µM (inactive) | > 34 µM (inactive) | > 22.3 µM (inactive) | 13.8 µM (inactive) | > 39.1 µM (inactive) | 0.867 µM (active) | 1.39 µM (inactive) | > 100 µM (inactive) | > 68.7 µM (inactive) | 5.08 µM (inactive) | 4.16 µM (inactive) | 1.54 µM (inactive) | > 100 µM (inactive) | 7.19 µM (inactive) | 3.49 µM (inactive) |  | 1.06 µM (active) | > 100 µM (inactive) | 2.44 µM (inactive) | > 100 µM (inactive) |
| CC(=O)C1=C(c2ccccc2)N(C2OC(CO)C(O)C(O)C2O)C(S)=C(C#N)C1c1ccc(Cl)cc1 (stereo unspecified) | 15.9 µM (inactive) | 36 µM (inactive) | 52.7 µM (inactive) | 42.4 µM (inactive) |  | 27 µM (inactive) | 34.8 µM (inactive) | 10.3 µM (inactive) | 31.4 µM (inactive) | 39.7 µM (inactive) | 18.5 µM (inactive) | 29.6 µM (inactive) | 20.7 µM (inactive) | 22.1 µM (inactive) | 25.8 µM (inactive) | 29 µM (inactive) | 29.1 µM (inactive) | 23.7 µM (inactive) | 39.4 µM (inactive) | 44.8 µM (inactive) |
| O=C1NC(Nc2ccccc2)=N/C1=C\c1c(Cl)cccc1Cl | > 100 µM (inactive) | 29.6 µM (inactive) | 18.9 µM (inactive) | 3.32 µM (inactive) | 20.6 µM (inactive) | 15.1 µM (inactive) | 14.3 µM (inactive) | 30.8 µM (inactive) | 23.6 µM (inactive) | 17.8 µM (inactive) | 62.7 µM (inactive) | 7.18 µM (inactive) | 16.7 µM (inactive) | 17.8 µM (inactive) | 19.8 µM (inactive) | 48.1 µM (inactive) | 5.09 µM (inactive) | 53.3 µM (inactive) | 18.2 µM (inactive) | 24.7 µM (inactive) |
| CC1(CCCO)CCCCCC(C)(CCCO)C1=O (stereo unspecified) | > 100 µM (inactive) | > 100 µM (inactive) |  | > 100 µM (inactive) | > 100 µM (inactive) | > 100 µM (inactive) | > 100 µM (inactive) | > 100 µM (inactive) | > 100 µM (inactive) | > 100 µM (inactive) | > 100 µM (inactive) | > 100 µM (inactive) | > 100 µM (inactive) | > 100 µM (inactive) | > 100 µM (inactive) | > 100 µM (inactive) | > 100 µM (inactive) | > 100 µM (inactive) | > 100 µM (inactive) | > 100 µM (inactive) |
| C=C1C(=O)CCC1C(=O)O (stereo unspecified) | > 100 µM (inactive) | > 100 µM (inactive) | > 100 µM (inactive) | > 100 µM (inactive) | > 100 µM (inactive) | > 100 µM (inactive) | > 100 µM (inactive) | > 100 µM (inactive) | > 100 µM (inactive) | > 100 µM (inactive) | > 100 µM (inactive) | > 100 µM (inactive) | > 100 µM (inactive) | > 100 µM (inactive) | > 100 µM (inactive) |  | > 100 µM (inactive) | > 100 µM (inactive) | > 100 µM (inactive) | > 100 µM (inactive) |

— ChEMBL document CHEMBL1201862, “PubChem BioAssay data set” (2004)
